ChEMBL document CHEMBL3351874, “Rational design of inhibitors of the bacterial cell wall synthetic enzyme GlmU using virtual screening and lead-hopping” (Bioorg Med Chem, 2014)

Key:
Aurora kinase B = Aurora kinase B (Homo sapiens, UniProt Q96GD4); assay: Inhibition of human AURKB incubated for 20 mins prior to MgCl2 addition measured after 90 mins by mobility shift assay
[1] = target: T1, Tyrosine-protein kinase JAK3 (Homo sapiens, UniProt P52333); assay: Inhibition of human JAK3 incubated for 20 mins prior to MgCl2 addition measured after 90 mins by mobility shift assay
T1 sequence (P52333 whole entry): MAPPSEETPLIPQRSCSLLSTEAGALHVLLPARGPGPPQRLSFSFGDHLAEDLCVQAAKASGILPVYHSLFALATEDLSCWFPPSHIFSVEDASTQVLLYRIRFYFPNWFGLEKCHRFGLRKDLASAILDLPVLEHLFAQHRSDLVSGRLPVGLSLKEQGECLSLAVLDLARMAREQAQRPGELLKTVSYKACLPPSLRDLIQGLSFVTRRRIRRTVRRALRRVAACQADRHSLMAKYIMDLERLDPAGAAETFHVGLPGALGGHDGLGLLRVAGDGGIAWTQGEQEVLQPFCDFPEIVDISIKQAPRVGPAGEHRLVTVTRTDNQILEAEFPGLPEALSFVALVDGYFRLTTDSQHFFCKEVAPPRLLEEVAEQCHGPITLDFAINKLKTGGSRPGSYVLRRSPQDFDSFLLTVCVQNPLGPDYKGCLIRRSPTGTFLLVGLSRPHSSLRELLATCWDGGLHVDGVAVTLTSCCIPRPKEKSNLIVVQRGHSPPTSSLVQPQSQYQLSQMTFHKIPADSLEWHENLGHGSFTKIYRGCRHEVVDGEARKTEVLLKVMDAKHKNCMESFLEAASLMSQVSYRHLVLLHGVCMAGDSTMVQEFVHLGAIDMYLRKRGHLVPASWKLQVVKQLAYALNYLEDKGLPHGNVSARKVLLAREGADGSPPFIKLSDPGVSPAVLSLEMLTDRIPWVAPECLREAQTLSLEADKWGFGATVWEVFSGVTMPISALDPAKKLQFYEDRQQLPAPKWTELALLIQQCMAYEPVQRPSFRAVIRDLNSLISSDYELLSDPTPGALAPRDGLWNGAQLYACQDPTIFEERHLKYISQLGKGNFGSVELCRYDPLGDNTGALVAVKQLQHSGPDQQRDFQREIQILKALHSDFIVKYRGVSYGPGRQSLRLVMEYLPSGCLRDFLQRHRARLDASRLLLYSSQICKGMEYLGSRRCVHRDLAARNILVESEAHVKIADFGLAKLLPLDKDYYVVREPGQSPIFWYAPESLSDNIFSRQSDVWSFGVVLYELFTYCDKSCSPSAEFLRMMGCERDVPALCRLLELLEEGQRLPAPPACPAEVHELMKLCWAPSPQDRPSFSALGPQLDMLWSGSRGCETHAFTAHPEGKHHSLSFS

[2] = target: Tyrosine-protein kinase JAK2 (Homo sapiens, UniProt O60674); assay: Inhibition of human JAK2 incubated for 20 mins prior to MgCl2 addition measured after 90 mins by mobility shift assay
Chain of Tyrosine-protein kinase JAK2 (O60674 whole entry): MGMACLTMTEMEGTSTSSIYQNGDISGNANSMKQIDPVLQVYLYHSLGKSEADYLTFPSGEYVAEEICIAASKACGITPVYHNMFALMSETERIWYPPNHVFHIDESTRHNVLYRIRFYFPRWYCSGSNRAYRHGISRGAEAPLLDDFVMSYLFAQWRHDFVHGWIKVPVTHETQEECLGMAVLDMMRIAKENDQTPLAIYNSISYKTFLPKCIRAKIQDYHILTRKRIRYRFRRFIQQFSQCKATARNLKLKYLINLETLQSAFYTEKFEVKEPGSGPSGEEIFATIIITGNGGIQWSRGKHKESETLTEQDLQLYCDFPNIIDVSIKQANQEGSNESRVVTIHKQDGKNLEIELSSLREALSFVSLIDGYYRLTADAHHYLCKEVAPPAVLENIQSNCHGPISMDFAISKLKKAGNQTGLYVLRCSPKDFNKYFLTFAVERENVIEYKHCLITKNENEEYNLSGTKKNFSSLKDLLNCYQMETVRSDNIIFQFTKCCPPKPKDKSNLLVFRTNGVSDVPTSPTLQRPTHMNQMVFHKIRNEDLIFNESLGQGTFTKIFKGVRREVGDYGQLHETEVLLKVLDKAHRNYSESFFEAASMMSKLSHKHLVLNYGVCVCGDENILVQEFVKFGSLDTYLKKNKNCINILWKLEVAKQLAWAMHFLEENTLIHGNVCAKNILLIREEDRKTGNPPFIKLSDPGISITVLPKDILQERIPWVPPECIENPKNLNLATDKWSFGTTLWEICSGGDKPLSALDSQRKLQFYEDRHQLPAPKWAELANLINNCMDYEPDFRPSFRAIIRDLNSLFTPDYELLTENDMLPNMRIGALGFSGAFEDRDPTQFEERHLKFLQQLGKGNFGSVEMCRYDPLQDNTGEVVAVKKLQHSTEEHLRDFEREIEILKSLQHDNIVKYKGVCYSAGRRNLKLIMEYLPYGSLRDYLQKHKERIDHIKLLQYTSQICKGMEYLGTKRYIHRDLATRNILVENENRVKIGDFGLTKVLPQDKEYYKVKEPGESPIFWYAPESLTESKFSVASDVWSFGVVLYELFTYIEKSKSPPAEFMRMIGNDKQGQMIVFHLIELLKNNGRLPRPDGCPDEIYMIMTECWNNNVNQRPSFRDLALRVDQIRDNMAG

[3] = Inhibition of Haemophilus influenzae ATCC 51907 GlmU expressed in Escherichia coli BL21(DE3) incubated for 15 mins prior to MgCl2 addition measured after 30 mins by malachite green staining-based assay
[4] = target: Interleukin-1 receptor-associated kinase 1 (Homo sapiens, UniProt P51617); assay: Inhibition of human IRAK1 incubated for 20 mins prior to MgCl2 addition measured after 90 mins by mobility shift assay
Chain of Interleukin-1 receptor-associated kinase 1 (P51617 whole entry): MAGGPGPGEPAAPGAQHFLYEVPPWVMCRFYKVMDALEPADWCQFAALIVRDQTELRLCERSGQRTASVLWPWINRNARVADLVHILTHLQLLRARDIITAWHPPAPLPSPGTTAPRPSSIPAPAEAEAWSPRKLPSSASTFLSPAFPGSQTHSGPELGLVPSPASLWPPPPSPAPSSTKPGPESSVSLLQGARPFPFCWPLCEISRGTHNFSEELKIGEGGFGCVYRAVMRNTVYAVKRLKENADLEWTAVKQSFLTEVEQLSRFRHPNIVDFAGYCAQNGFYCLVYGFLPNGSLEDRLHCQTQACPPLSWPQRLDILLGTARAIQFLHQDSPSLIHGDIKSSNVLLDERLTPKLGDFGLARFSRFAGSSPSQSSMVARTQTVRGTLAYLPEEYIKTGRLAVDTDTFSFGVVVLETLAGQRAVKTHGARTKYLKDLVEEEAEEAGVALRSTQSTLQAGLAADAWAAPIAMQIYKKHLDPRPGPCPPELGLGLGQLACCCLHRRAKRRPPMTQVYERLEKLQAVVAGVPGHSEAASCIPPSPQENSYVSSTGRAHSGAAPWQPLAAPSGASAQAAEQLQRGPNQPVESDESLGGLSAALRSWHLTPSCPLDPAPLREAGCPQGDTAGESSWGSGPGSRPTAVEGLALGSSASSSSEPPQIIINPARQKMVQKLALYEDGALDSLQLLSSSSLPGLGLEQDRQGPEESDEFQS

[5] = target: Cyclin-dependent kinase 2 (Homo sapiens, UniProt P24941); assay: Inhibition of human CDK2 incubated for 20 mins prior to MgCl2 addition measured after 90 mins by mobility shift assay
[6] = target: Cyclin-dependent kinase 1 (Homo sapiens, UniProt P06493); assay: Inhibition of human CDK1 incubated for 20 mins prior to MgCl2 addition measured after 90 mins by mobility shift assay
Chain of Cyclin-dependent kinase 1 (P06493 whole entry): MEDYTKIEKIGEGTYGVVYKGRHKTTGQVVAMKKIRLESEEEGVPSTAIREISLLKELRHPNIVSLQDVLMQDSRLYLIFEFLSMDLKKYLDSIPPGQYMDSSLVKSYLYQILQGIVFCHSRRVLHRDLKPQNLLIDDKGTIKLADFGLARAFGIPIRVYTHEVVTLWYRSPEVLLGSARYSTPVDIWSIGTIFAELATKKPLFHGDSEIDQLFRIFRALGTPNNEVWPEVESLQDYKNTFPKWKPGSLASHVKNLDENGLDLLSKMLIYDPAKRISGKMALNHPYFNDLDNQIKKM

[7] = target: Tyrosine-protein kinase JAK1 (Homo sapiens, UniProt P23458); assay: Inhibition of human JAK1 incubated for 20 mins prior to MgCl2 addition measured after 90 mins by mobility shift assay
Chain of Tyrosine-protein kinase JAK1 (P23458 whole entry): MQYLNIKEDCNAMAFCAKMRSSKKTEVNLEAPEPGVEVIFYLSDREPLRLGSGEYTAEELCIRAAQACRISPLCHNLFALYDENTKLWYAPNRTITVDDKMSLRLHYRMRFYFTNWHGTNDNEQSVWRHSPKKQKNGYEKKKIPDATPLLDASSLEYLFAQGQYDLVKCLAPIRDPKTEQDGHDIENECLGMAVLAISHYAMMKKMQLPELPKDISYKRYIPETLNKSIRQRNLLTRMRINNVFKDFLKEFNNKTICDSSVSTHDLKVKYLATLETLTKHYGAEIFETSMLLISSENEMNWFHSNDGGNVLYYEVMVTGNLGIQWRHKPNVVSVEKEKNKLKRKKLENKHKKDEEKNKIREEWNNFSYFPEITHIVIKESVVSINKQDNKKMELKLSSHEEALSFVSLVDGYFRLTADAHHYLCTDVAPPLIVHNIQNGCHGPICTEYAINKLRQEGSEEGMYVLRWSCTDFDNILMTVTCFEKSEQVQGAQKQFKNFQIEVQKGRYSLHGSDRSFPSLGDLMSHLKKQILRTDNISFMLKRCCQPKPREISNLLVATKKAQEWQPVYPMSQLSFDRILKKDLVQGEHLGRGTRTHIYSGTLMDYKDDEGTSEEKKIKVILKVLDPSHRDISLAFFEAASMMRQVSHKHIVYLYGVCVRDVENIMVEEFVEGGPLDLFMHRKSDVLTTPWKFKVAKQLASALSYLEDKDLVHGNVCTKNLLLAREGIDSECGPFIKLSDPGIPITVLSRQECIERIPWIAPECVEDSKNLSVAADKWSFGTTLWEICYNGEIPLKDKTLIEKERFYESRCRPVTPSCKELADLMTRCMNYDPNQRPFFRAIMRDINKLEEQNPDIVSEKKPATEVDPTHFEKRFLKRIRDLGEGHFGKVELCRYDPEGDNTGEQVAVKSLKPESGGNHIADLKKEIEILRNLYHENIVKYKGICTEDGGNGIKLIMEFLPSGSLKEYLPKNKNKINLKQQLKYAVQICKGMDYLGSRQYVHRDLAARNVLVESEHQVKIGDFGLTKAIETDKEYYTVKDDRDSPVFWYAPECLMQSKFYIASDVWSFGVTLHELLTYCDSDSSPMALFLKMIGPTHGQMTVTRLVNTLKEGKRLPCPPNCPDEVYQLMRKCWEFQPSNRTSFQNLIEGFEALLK

[8] = target: Cyclin-dependent kinase 9 (Homo sapiens, UniProt P50750); assay: Inhibition of human CDK9 incubated for 20 mins prior to MgCl2 addition measured after 90 mins by mobility shift assay
Chain of Cyclin-dependent kinase 9 (P50750 whole entry): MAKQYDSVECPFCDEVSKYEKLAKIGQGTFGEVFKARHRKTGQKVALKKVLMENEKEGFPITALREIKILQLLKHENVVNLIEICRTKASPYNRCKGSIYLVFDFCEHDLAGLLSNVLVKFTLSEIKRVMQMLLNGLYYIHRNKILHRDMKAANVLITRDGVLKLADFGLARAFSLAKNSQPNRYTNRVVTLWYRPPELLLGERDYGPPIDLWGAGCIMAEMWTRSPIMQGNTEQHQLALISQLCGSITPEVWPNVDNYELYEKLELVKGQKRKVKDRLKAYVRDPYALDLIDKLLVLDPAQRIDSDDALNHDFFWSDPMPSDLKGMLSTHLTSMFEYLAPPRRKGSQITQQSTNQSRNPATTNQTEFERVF

[9] = Serum protein binding in human at 10 uM after 30 mins by ultrafiltration method; format: ADME; conditions: read-out: PB (converted)
[10] = target: Bifunctional protein GlmU (Escherichia coli, UniProt C3SLB7); assay: Inhibition of Escherichia coli ATCC 27325 GlmU expressed in Escherichia coli HMS174(DE3) incubated for 15 mins prior to MgCl2 addition measured after 30 mins by malachite green staining-based assay
Chain of Bifunctional protein GlmU (C3SLB7 whole entry): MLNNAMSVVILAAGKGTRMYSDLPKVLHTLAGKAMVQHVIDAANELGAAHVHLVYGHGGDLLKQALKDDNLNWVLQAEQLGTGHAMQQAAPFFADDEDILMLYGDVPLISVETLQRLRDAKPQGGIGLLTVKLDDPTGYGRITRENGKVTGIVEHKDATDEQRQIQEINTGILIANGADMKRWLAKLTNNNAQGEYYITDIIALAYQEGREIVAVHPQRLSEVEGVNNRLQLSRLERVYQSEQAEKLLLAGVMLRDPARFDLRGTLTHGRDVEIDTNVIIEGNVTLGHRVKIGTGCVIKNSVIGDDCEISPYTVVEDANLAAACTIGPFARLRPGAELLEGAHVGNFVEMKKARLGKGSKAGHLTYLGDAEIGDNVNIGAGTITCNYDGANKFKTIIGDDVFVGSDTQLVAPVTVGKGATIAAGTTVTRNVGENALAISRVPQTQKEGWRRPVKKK

[11] = target: T2, Interleukin-1 receptor-associated kinase 4 (Homo sapiens, UniProt Q9NWZ3); assay: Inhibition of human IRAK4 incubated for 20 mins prior to MgCl2 addition measured after 90 mins by mobility shift assay
T2 sequence (Q9NWZ3 whole entry): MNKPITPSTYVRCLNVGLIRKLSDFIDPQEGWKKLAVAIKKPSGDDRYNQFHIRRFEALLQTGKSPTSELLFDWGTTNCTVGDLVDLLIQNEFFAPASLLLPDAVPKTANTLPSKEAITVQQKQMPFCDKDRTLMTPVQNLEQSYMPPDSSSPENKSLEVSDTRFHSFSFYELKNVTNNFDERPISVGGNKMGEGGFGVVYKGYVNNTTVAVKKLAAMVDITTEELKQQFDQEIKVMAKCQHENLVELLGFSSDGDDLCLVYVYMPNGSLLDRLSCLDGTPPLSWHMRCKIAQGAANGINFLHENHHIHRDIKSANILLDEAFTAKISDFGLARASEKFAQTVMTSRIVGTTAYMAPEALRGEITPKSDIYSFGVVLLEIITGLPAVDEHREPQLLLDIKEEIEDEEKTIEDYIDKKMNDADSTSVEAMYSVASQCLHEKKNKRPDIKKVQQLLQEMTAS

Chain of Aurora kinase B (Q96GD4 whole entry): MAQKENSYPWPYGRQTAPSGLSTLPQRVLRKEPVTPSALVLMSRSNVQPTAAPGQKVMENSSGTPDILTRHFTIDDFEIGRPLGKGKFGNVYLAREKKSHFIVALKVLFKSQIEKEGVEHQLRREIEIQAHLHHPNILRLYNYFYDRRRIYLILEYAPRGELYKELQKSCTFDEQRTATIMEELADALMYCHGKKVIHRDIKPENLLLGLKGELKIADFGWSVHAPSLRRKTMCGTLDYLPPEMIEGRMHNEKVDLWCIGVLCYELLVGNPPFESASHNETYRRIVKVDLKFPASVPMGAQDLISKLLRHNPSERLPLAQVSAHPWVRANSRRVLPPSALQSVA

Compound | IC50 (Aurora kinase B) | IC50 [1] | IC50 [2] | IC50 [3] | IC50 [4] | IC50 [5] | IC50 [6] | IC50 [7] | IC50 [8] | fraction unbound at 0.5 h, 10 µM [9] | IC50 [10] | IC50 [11]
COc1cc(C(=O)Nc2ccc(NC(=O)c3ccccn3)cc2)ccc1O | 5.91 µM | > 30 µM | > 30 µM | 510 nM | > 30 µM | > 30 µM | > 30 µM | > 30 µM | > 30 µM | 0.016 | 8.2 µM | > 30 µM
COc1cc2c(Nc3ccc(NC(=O)c4ccccc4)cc3)ncnc2cc1O | 0.275 µM | > 30 µM | > 30 µM | 260 nM | > 30 µM | > 30 µM | > 30 µM | > 30 µM | > 30 µM | – | 1.3 µM | > 30 µM
COc1cc(C(=O)Nc2ccc(NC(=O)c3ccccn3)cc2)cc(N2CCC(=O)NC2=O)c1 | 14.3 µM | > 30 µM | > 30 µM | 71 nM | > 30 µM | > 30 µM | > 30 µM | > 30 µM | > 30 µM | 0.097 | 1.7 µM | > 30 µM
COc1cc2c(Nc3ccc(NC(=O)c4ccccc4)cc3)nc(N)nc2cc1O | > 30 µM | > 30 µM | > 30 µM | 1700 nM | > 30 µM | > 30 µM | > 30 µM | > 30 µM | > 30 µM | 0.023 | 10.5 µM | > 30 µM
O=C(Nc1ccc(NC(=O)c2ccccn2)cc1)c1ccc(O)c([N+](=O)[O-])c1 | 23.1 µM | > 30 µM | > 30 µM | 50 nM | > 30 µM | > 30 µM | > 30 µM | > 30 µM | > 30 µM | < 0.01 | 3.1 µM | > 30 µM
COc1cc(C(=O)Nc2ccc(NC(=O)c3ccccc3)cc2)ccc1OCC(=O)O | > 30 µM | > 30 µM | > 30 µM | 23000 nM | > 30 µM | > 30 µM | > 30 µM | > 30 µM | > 30 µM | – | > 67 µM | > 30 µM
COc1ccc(C(=O)Nc2ccc(NC(=O)c3ccccn3)cc2)cc1-c1c[nH]c(=O)[nH]c1=O | > 30 µM | > 30 µM | > 30 µM | 950 nM | > 30 µM | > 30 µM | > 30 µM | > 30 µM | > 30 µM | < 0.01 | > 22 µM | > 30 µM
COc1cc2c(Nc3ccc(NC(=O)c4ccccc4)cc3)ncnc2cc1OCCO | 0.0273 µM | > 30 µM | > 30 µM | 19000 nM | > 30 µM | > 30 µM | > 30 µM | > 30 µM | > 30 µM | – | 35 µM | 24.4 µM
COc1cc(C(=O)Nc2ccc(NC(=O)c3ccccc3)cc2)ccc1O | > 30 µM | > 30 µM | > 30 µM | 1400 nM | > 30 µM | > 30 µM | > 30 µM | > 30 µM | > 30 µM | < 0.01 | 18 µM | > 30 µM
COc1cc2c(Nc3ccc(NC(=O)c4ccccc4)cc3)nc(C)nc2cc1O | > 30 µM | > 30 µM | > 30 µM | 390 nM | > 30 µM | > 30 µM | > 30 µM | > 30 µM | > 30 µM | 0.097 | 2.2 µM | > 30 µM
COc1cc2c(Nc3ccc(NC(=O)c4ccccc4)cc3)ncnc2cc1OCC(=O)O | 0.689 µM | > 30 µM | > 30 µM | 3200 nM | > 30 µM | > 30 µM | > 30 µM | > 30 µM | > 30 µM | < 0.01 | 6.7 µM | > 30 µM
COc1cc(C(=O)Nc2ccc(NC(=O)c3ccccc3)cc2)c(N)cc1O | > 30 µM | > 30 µM | > 30 µM | 6100 nM | > 30 µM | > 30 µM | > 30 µM | > 30 µM | > 30 µM | 0.011 | 5.9 µM | > 30 µM
COc1cc2c(Nc3ccc(NC(=O)c4ccccc4)cc3)nc(NCCc3ccccn3)nc2cc1O | > 30 µM | > 30 µM | > 30 µM | 380 nM | > 30 µM | > 30 µM | > 30 µM | > 30 µM | > 30 µM | < 0.01 | 0.65 µM | 0.579 µM
COc1cc(C(=O)Nc2ccc(NC(=O)c3ccccn3)cc2)cc(-c2c[nH]c(=O)[nH]c2=O)c1 | > 30 µM | > 30 µM | > 30 µM | 1.7 nM | > 30 µM | > 30 µM | > 30 µM | > 30 µM | > 30 µM | – | 0.027 µM | > 30 µM
O=C(Nc1ccc(NC(=O)c2ccccn2)cc1)c1cccc(-c2c[nH]c(=O)[nH]c2=O)c1 | 7.51 µM | > 30 µM | > 30 µM | 5 nM | > 30 µM | > 30 µM | > 30 µM | > 30 µM | > 30 µM | 0.019 | 0.35 µM | > 30 µM
COc1cc2c(Nc3ccc(NC(=O)c4ccccc4)cc3)ncnc2cc1OCC(N)=O | 0.155 µM | > 30 µM | > 30 µM | > 22000 nM | > 30 µM | > 30 µM | > 30 µM | > 30 µM | > 30 µM | – | > 22 µM | > 30 µM
